Experimental data: patent publication EP4603105A1, “PHARMACEUTICAL COMPOSITION CONTAINING CYCLIC COMPOUND HAVING SELECTIVE KRAS INHIBITORY EFFECT AGAINST HRAS AND NRAS” (CHUGAI SEIYAKU KABUSHIKI KAISHA, priority 2022, dated 2024)
Where a SMILES comes first, the peptide text is derived from it. Bridges are numbered along the chain shown (N, C = ends). [ ]: non-standard residue; d: D form. The star is where a group is joined. hPhe(3-Cl-4-CF3) = N[C@@H](CCc1ccc(C(F)(F)F)c(Cl)c1)C(=O)O; NPrPhe(4-CF3) = CCCN[C@@H](Cc1ccc(C(F)(F)F)cc1)C(=O)O; NPrPhe(4-Me) = CCCN[C@@H](Cc1ccc(C)cc1)C(=O)O; 3Oxa8azabicyclo(3.2.1)octane = C1CC2COCC1N2*; NEtPhe(4-Me) = CCN[C@@H](Cc1ccc(C)cc1)C(=O)O; NMePhe(4-Me) = CN[C@@H](Cc1ccc(C)cc1)C(=O)O; NMeGly(cPent) = CN[C@H](C(=O)O)C1CCCC1; Hyp = O=C(O)[C@@H]1C[C@@H](O)CN1; NMeF = CN[C@@H](Cc1ccccc1)C(=O)O; NMeI = CC[C@H](C)[C@H](NC)C(=O)O; NMeD = CN[C@@H](CC(=O)O)C(=O)O; NMeL = CN[C@@H](CC(C)C)C(=O)O; NMeS = CN[C@@H](CO)C(=O)O; Morpholide = C1CN(*)CCO1; NMeA = CN[C@@H](C)C(=O)O; NMeAib = CNC(C)(C)C(=O)O; Nle = CCCC[C@H](N)C(=O)O; Piperidide = C1CCN(*)CC1; Ac5c = NC1(C(=O)O)CCCC1; Aze = O=C(O)[C@@H]1CCN1; Sar = CNCC(=O)O

Key:
[1] = biological target: GDP-bound NRAS wild-type protein (Homo sapiens, UniProt P01111); assay: Binding to NRAS by surface plasmon resonance (SPR), KD and KD ratio to KRAS; conditions: ratio of KD for GDP-bound NRAS wild-type protein to KD for KRAS
Chain of GDP-bound NRAS wild-type protein (P01111 whole entry): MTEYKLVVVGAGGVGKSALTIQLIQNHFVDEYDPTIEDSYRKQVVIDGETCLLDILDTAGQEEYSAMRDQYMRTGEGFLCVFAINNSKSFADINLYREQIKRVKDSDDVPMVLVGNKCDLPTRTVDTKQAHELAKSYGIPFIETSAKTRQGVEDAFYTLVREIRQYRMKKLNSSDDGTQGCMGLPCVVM
Description: (§1) Surface plasmon resonance was used to analyze the binding affinity of compounds for KRAS, NRAS, and HRAS. The apparatus used was Biacore 8K, 8K+, or T200 (GE Healthcare), and the running buffer used was HBS (10 mM HEPES-NaOH, 150 mM NaCl, pH 7.4) containing 1 mM DTT, 10 mM MgCl2, 0.01% Tween 20, 10 µM GDP, and 4% DMSO.
(§2) Biotinylated Avi-tag fusion KRAS, NRAS, and HRAS proteins were expressed in E. coli BL21 (DE3) strains, and after cells were homogenized, they were purified using Streptavidin Mutein Matrix and Superdex 75. After purification, GDP-loaded KRAS, NRAS, and HRAS proteins were immobilized on the surface of Sensor Chip CAP (Cytiva) coated with Biotin CAPture Reagent in an immobilization amount of about 100 to 300 RU. Binding of each compound was evaluated by the Single Cycle Kinetics method, and a running buffer or a compound solution was added to the RAS protein non-immobilized surface and the immobilized surface to obtain a binding response. The flow rate was set to 100 µL/min, and in the compound-adding cycle, compound solutions having different concentrations were intermittently added for 75 seconds each, starting from a low concentration. […] In the blank cycle, a running buffer was intermittently added and not the compound solution. The Biotin CAPture Reagent and RAS proteins were immobilized for each cycle, and at the end of each cycle, the sensor chip was regenerated by the regeneration solution appended to the Biotin CAPture Kit (Cytiva). Measurement was carried out at 30°C.
(§3) The resulting sensorgram was subjected to curve fitting based on a 1:1 binding model on Biacore Insight Evaluation Software or T200 Evaluation Software, and thereby the dissociation constant KD of each compound with respect to KRAS, NRAS, and HRAS was determined. […] Blank indicates a compound from which the KD value with respect to NRAS or HRAS was not obtained.

[2] = test system: human lung cancer strain NCI-H441; format: cell-based
How it was run: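 Step one: dispense the test compound in serial DMSO dilutions. Step three: add the reagent and measure […].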

[3] = biological target: HRAS wild-type protein (Homo sapiens, UniProt P01112); assay: Binding to HRAS by surface plasmon resonance (SPR), KD and KD ratio to KRAS; conditions: ratio of KD for HRAS wild-type protein to KD for KRAS
Chain of HRAS wild-type protein (P01112 whole entry): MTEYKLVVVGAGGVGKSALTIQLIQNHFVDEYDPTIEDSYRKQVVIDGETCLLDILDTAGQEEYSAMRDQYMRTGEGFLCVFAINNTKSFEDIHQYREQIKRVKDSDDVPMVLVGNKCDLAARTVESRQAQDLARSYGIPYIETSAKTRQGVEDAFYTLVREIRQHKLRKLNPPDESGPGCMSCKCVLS
Description: as §1, §2, §3

| SMILES | NRAS /KRAS [1] | IC50 [2] [nM] | HRAS /KRAS [3] |
| --- | --- | --- | --- |
| CC[C@H](C)[C@@H]1NC(=O)[C@H](CC(C)C)N(C)C(=O)C[C@@H](C(=O)N2CCOCC2)N(C)C(=O)[C@H](C2CCCC2)N(C)C(=O)C2(CCCC2)NC(=O)[C@@H]2CCCN2C(=O)[C@H](CCc2ccc(C(F)(F)F)c(Cl)c2)NC(=O)CN(C)C(=O)[C@H](Cc2ccc(C)cc2)N(C)C(=O)[C@H](CO)N(C)C(=O)CN(C)C1=O [PP0037] ([NMeL]I[Sar][NMeS][NMePhe(4-Me)][Sar][hPhe(3-Cl-4-CF3)]P[Ac5c][NMeGly(cPent)][NMeD]-Morpholide; lactam N-11) | C (A compound having a KD ratio of 0.1 or more and less than 3 is denoted as C) | 430 | C (A compound having a KD ratio of 0.1 or more and less than 3 is denoted as C) |
| CC[C@H](C)[C@@H]1NC(=O)[C@H](CC(C)C)N(C)C(=O)C[C@@H](C(=O)N2CCOCC2)N(C)C(=O)[C@H](C2CCCC2)N(C)C(=O)C2(CCCC2)NC(=O)[C@@H]2CCCN2C(=O)[C@H](CCc2ccc(C(F)(F)F)c(Cl)c2)NC(=O)CN(C)C(=O)[C@H](Cc2ccccc2)N(C)C(=O)CN(C)C(=O)CN(C)C1=O [PP0039] ([NMeL]I[Sar][Sar][NMeF][Sar][hPhe(3-Cl-4-CF3)]P[Ac5c][NMeGly(cPent)][NMeD]-Morpholide; lactam N-11) | C (A compound having a KD ratio of 0.1 or more and less than 3 is denoted as C) | 20.1 | C (A compound having a KD ratio of 0.1 or more and less than 3 is denoted as C) |
| CCO[C@@H]1C[C@H]2C(=O)NC3(CCCC3)C(=O)N(C)[C@@H](C3CCCC3)C(=O)N(C)[C@H](C(=O)N3CCOCC3)CC(=O)N(C)[C@@H](CC(C)C)C(=O)N[C@@H]([C@@H](C)CC)C(=O)N(C)CC(=O)N(C)CC(=O)N(CC)[C@@H](Cc3ccc(C)cc3)C(=O)N(C)CC(=O)N[C@@H](CCc3ccc(C(F)(F)F)c(Cl)c3)C(=O)N2C1 [PP0042] ([NMeL]I[Sar][Sar][NEtPhe(4-Me)][Sar][hPhe(3-Cl-4-CF3)][Hyp](Et)[Ac5c][NMeGly(cPent)][NMeD]-Morpholide; lactam N-11) | C (A compound having a KD ratio of 0.1 or more and less than 3 is denoted as C) | 7.2 | C (A compound having a KD ratio of 0.1 or more and less than 3 is denoted as C) |
| CC[C@H](C)[C@@H]1NC(=O)[C@H](CC(C)C)N(C)C(=O)C[C@@H](C(=O)N2CCOCC2)N(C)C(=O)[C@H]([C@@H](C)CC)N(C)C(=O)C2(CCCC2)NC(=O)[C@@H]2CCCN2C(=O)[C@H](CCc2ccc(C(F)(F)F)c(Cl)c2)NC(=O)CN(C)C(=O)[C@H](Cc2ccc(C)cc2)N(CC)C(=O)CN(C)C(=O)CN(C)C1=O [PP0043] ([NMeL]I[Sar][Sar][NEtPhe(4-Me)][Sar][hPhe(3-Cl-4-CF3)]P[Ac5c][NMeI][NMeD]-Morpholide; lactam N-11) | C (A compound having a KD ratio of 0.1 or more and less than 3 is denoted as C) | 20.4 | C (A compound having a KD ratio of 0.1 or more and less than 3 is denoted as C) |
| CC[C@H](C)[C@@H]1NC(=O)[C@H](CC(C)C)N(C)C(=O)C[C@@H](C(=O)N2CCOCC2)N(C)C(=O)[C@H](CC(C)C)N(C)C(=O)C2(CCCC2)NC(=O)[C@@H]2CCCN2C(=O)[C@H](CCc2ccc(C(F)(F)F)c(Cl)c2)NC(=O)CN(C)C(=O)[C@H](Cc2ccc(C)cc2)N(CC)C(=O)CN(C)C(=O)CN(C)C1=O [PP0045] ([NMeL]I[Sar][Sar][NEtPhe(4-Me)][Sar][hPhe(3-Cl-4-CF3)]P[Ac5c][NMeL][NMeD]-Morpholide; lactam N-11) | C (A compound having a KD ratio of 0.1 or more and less than 3 is denoted as C) | 292 | C (A compound having a KD ratio of 0.1 or more and less than 3 is denoted as C) |
| CCCC[C@@H]1NC(=O)[C@H](CCc2ccc(C(F)(F)F)c(Cl)c2)NC(=O)CN(C)C(=O)[C@H](Cc2ccc(C)cc2)N(C)C(=O)[C@@H]2CCN2C(=O)[C@H](C)N(C)C(=O)[C@H]([C@@H](C)CC)NC(=O)[C@H](CC(C)C)N(C)C(=O)C[C@@H](C(=O)N2CCCCC2)N(C)C(=O)[C@H](CC(C)C)NC(=O)C(C)(C)N(C)C1=O [PP0047] ([NMeL]I[NMeA][Aze][NMePhe(4-Me)][Sar][hPhe(3-Cl-4-CF3)][Nle][NMeAib]L[NMeD]-Piperidide; lactam N-11) | C (A compound having a KD ratio of 0.1 or more and less than 3 is denoted as C) | 229 | C (A compound having a KD ratio of 0.1 or more and less than 3 is denoted as C) |
| CCCC[C@@H]1NC(=O)[C@H](CCc2ccc(C(F)(F)F)c(Cl)c2)NC(=O)CN(C)C(=O)[C@H](Cc2ccc(C)cc2)N(CC)C(=O)[C@@H]2CCN2C(=O)[C@H](C)N(C)C(=O)[C@H]([C@@H](C)CC)NC(=O)[C@H](CC(C)C)N(C)C(=O)C[C@@H](C(=O)N2CCCCC2)N(C)C(=O)[C@H](CC(C)C)NC(=O)C(C)(C)N(C)C1=O [PP0048] ([NMeL]I[NMeA][Aze][NEtPhe(4-Me)][Sar][hPhe(3-Cl-4-CF3)][Nle][NMeAib]L[NMeD]-Piperidide; lactam N-11) | C (A compound having a KD ratio of 0.1 or more and less than 3 is denoted as C) | 464 | C (A compound having a KD ratio of 0.1 or more and less than 3 is denoted as C) |
| CCCC[C@@H]1NC(=O)[C@H](CCc2ccc(C(F)(F)F)c(Cl)c2)NC(=O)CN(C)C(=O)[C@H](Cc2ccc(C)cc2)N(C)C(=O)CN(C)C(=O)CN(C)C(=O)[C@H]([C@@H](C)CC)NC(=O)[C@H](CC(C)C)N(C)C(=O)C[C@@H](C(=O)N2CCCCC2)N(C)C(=O)[C@H](CC(C)C)NC(=O)C(C)(C)N(C)C1=O [PP0049] ([NMeL]I[Sar][Sar][NMePhe(4-Me)][Sar][hPhe(3-Cl-4-CF3)][Nle][NMeAib]L[NMeD]-Piperidide; lactam N-11) | C (A compound having a KD ratio of 0.1 or more and less than 3 is denoted as C) | 201 | C (A compound having a KD ratio of 0.1 or more and less than 3 is denoted as C) |
| CC[C@H](C)[C@@H]1NC(=O)[C@H](CC(C)C)N(C)C(=O)C[C@@H](C(=O)N2C3CCC2COC3)N(C)C(=O)[C@H](C2CCCC2)N(C)C(=O)C2(CCCC2)NC(=O)[C@@H]2CCCN2C(=O)[C@H](CCc2ccc(C(F)(F)F)c(Cl)c2)NC(=O)CN(C)C(=O)[C@H](Cc2ccc(C)cc2)N(CC)C(=O)CN(C)C(=O)CN(C)C1=O [PP0051] ([NMeL]I[Sar][Sar][NEtPhe(4-Me)][Sar][hPhe(3-Cl-4-CF3)]P[Ac5c][NMeGly(cPent)][NMeD]-{3Oxa8azabicyclo(3.2.1)octane}; lactam N-11) | C (A compound having a KD ratio of 0.1 or more and less than 3 is denoted as C) | 22.1 | C (A compound having a KD ratio of 0.1 or more and less than 3 is denoted as C) |
| CCCN1C(=O)[C@@H]2CCN2C(=O)[C@H](C)N(C)C(=O)[C@H]([C@@H](C)CC)NC(=O)[C@H](CC(C)C)N(C)C(=O)C[C@@H](C(=O)N2CCOCC2)N(C)C(=O)[C@H](C2CCCC2)N(C)C(=O)C2(CCCC2)NC(=O)[C@@H]2CCCN2C(=O)[C@H](CCc2ccc(C(F)(F)F)c(Cl)c2)NC(=O)CN(C)C(=O)[C@@H]1Cc1ccc(C)cc1 [PP0052] ([NMeL]I[NMeA][Aze][NPrPhe(4-Me)][Sar][hPhe(3-Cl-4-CF3)]P[Ac5c][NMeGly(cPent)][NMeD]-Morpholide; lactam N-11) | C (A compound having a KD ratio of 0.1 or more and less than 3 is denoted as C) | 1.7 | B (a compound having 3 or more and less than 10 is denoted as B) |
| CCCN1C(=O)[C@@H]2CCN2C(=O)[C@H](C)N(C)C(=O)[C@H]([C@@H](C)CC)NC(=O)[C@H](CC(C)C)N(C)C(=O)C[C@@H](C(=O)N2CCOCC2)N(C)C(=O)[C@H](C2CCCC2)N(C)C(=O)C2(CCCC2)NC(=O)[C@@H]2CCCN2C(=O)[C@H](CCc2ccc(C(F)(F)F)c(Cl)c2)NC(=O)CN(C)C(=O)[C@@H]1Cc1ccc(C(F)(F)F)cc1 [PP0053] ([NMeL]I[NMeA][Aze][NPrPhe(4-CF3)][Sar][hPhe(3-Cl-4-CF3)]P[Ac5c][NMeGly(cPent)][NMeD]-Morpholide; lactam N-11) | C (A compound having a KD ratio of 0.1 or more and less than 3 is denoted as C) | 4.6 | C (A compound having a KD ratio of 0.1 or more and less than 3 is denoted as C) |
